In article PMC5529566, “The cryo-EM structure of gastric H^+,K^+-ATPase with bound BYK99, a high-affinity member of K^+-competitive, imidazo[1,2-a]pyridine inhibitors” (Scientific Reports, 2017):

Experiments:
H^+,K^+-ATPase D137L = H^+,K^+-ATPase D137L (Sus scrofa, UniProt P19156, D138L); assay: ATPase assay, D137L mutant
H^+,K^+-ATPase D136I = H^+,K^+-ATPase D136I (Sus scrofa, UniProt P19156, D137I); assay: ATPase assay, D136I mutant
H^+,K^+-ATPase N138D = H^+,K^+-ATPase N138D (Sus scrofa, UniProt P19156, N139D); assay: ATPase assay, N138D mutant
H^+,K^+-ATPase WT = target: T1, H^+,K^+-ATPase WT (Sus scrofa, UniProt P19156); assay: K^+-competitive inhibition of H^+,K^+-ATPase activity, 96-well ATPase assay, wild-type; assay type: biochemical, pig; conditions: WT
T1 construct: made in house; host or cells: HEK293S GnT1- cells (BacMam baculovirus transduction); permeabilised membrane fractions

H^+,K^+-ATPase F332I = H^+,K^+-ATPase F332I (Sus scrofa, UniProt P19156, F333I); assay: ATPase assay, F332I mutant
[1] = target: H^+,K^+-ATPase D137N/N138D (Sus scrofa, UniProt P19156, D138N/N139D); assay: ATPase assay, D137N/N138D mutant
H^+,K^+-ATPase Y140L = H^+,K^+-ATPase Y140L (Sus scrofa, UniProt P19156, Y141L); assay: ATPase assay, Y140L mutant
H^+,K^+-ATPase L139F = H^+,K^+-ATPase L139F (Sus scrofa, UniProt P19156, L140F); assay: ATPase assay, L139F mutant
H^+,K^+-ATPase L796F = H^+,K^+-ATPase L796F (Sus scrofa, UniProt P19156, L797F); assay: ATPase assay, L796F mutant
H^+,K^+-ATPase A335G = H^+,K^+-ATPase A335G (Sus scrofa, UniProt P19156, A336G); assay: ATPase assay, A335G mutant
H^+,K^+-ATPase L800F = H^+,K^+-ATPase L800F (Sus scrofa, UniProt P19156, L801F); assay: ATPase assay, L800F mutant
H^+,K^+-ATPase D137E = target: T2, H^+,K^+-ATPase D137E (Sus scrofa, UniProt P19156, D138E); assay: ATPase assay, D137E mutant; assay type: biochemical, pig
T2 construct: made in house; host or cells: HEK293S GnT1- cells (BacMam baculovirus transduction), membrane fraction

H^+,K^+-ATPase Y799F = H^+,K^+-ATPase Y799F (Sus scrofa, UniProt P19156, Y800F); assay: ATPase assay, Y799F mutant
H^+,K^+-ATPase Y140F = H^+,K^+-ATPase Y140F (Sus scrofa, UniProt P19156, Y141F); assay: ATPase assay, Y140F mutant
H^+,K^+-ATPase V331F = H^+,K^+-ATPase V331F (Sus scrofa, UniProt P19156, V332F); assay: ATPase assay, V331F mutant
H^+,K^+-ATPase = system: H^+,K^+-ATPase; parameters: method as in doi:10.1016/j.tetlet.2006.02.156; conditions: cited from earlier work
H^+,K^+-ATPase D137F = H^+,K^+-ATPase D137F (Sus scrofa, UniProt P19156, D138F); assay: ATPase assay, D137F mutant
H^+,K^+-ATPase L139A = H^+,K^+-ATPase L139A (Sus scrofa, UniProt P19156, L140A); assay: ATPase assay, L139A mutant
H^+,K^+-ATPase L141I = H^+,K^+-ATPase L141I (Sus scrofa, UniProt P19156, L142I); assay: ATPase assay, L141I mutant
H^+,K^+-ATPase D137N = H^+,K^+-ATPase D137N (Sus scrofa, UniProt P19156, D138N); assay: ATPase assay, D137N mutant
[2] = target: H^+,K^+-ATPase A335C/C813A (Sus scrofa, UniProt P19156, A336C/C814A); assay: ATPase assay, A335C/C813A mutant
H^+,K^+-ATPase L139I = H^+,K^+-ATPase L139I (Sus scrofa, UniProt P19156, L140I); assay: ATPase assay, L139I mutant
H^+,K^+-ATPase V338A = H^+,K^+-ATPase V338A (Sus scrofa, UniProt P19156, V339A); assay: ATPase assay, V338A mutant
H^+,K^+-ATPase L809F = H^+,K^+-ATPase L809F (Sus scrofa, UniProt P19156, L810F); assay: ATPase assay, L809F mutant
H^+,K^+-ATPase A125F = H^+,K^+-ATPase A125F (Sus scrofa, UniProt P19156, A126F); assay: ATPase assay, A125F mutant
H^+,K^+-ATPase N138L = H^+,K^+-ATPase N138L (Sus scrofa, UniProt P19156, N139L); assay: ATPase assay, N138L mutant

Sequence of H^+,K^+-ATPase D137N (P19156 whole entry D138N): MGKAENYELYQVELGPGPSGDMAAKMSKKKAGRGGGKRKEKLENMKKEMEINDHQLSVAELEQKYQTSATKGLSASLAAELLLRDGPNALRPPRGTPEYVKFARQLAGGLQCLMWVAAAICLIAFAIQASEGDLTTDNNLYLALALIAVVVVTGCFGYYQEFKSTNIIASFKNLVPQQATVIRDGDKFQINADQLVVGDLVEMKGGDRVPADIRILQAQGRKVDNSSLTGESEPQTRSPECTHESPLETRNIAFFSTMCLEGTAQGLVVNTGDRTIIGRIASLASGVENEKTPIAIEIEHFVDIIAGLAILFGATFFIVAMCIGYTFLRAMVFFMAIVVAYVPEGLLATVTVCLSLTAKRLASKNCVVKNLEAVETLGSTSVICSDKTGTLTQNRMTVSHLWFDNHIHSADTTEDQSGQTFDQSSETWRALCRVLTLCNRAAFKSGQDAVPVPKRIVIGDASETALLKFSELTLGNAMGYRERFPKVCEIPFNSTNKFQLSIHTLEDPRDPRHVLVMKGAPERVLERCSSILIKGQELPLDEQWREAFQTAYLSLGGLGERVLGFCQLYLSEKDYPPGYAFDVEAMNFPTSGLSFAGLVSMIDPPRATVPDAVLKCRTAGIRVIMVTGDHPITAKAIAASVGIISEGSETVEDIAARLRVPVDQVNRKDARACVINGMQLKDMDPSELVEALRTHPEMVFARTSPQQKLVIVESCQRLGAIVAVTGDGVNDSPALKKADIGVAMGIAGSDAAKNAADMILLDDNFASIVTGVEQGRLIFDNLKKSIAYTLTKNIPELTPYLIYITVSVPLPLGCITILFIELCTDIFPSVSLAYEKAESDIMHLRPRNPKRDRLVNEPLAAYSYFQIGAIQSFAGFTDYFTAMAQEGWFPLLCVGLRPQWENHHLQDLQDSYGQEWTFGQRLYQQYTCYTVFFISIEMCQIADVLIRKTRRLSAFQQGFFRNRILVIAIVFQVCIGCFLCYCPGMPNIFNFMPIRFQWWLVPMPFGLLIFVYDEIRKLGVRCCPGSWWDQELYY
Sequence of H^+,K^+-ATPase D137N (P18434 whole entry partner): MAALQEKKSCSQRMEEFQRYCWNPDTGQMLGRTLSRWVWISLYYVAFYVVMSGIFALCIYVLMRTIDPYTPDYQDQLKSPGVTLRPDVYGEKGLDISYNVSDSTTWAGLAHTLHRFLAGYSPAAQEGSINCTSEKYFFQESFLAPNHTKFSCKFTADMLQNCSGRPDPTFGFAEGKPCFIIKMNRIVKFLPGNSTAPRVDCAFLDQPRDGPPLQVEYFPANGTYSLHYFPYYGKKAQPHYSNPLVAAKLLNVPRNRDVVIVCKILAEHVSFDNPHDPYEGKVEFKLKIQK
Sequence of H^+,K^+-ATPase A335G (P19156 whole entry A336G): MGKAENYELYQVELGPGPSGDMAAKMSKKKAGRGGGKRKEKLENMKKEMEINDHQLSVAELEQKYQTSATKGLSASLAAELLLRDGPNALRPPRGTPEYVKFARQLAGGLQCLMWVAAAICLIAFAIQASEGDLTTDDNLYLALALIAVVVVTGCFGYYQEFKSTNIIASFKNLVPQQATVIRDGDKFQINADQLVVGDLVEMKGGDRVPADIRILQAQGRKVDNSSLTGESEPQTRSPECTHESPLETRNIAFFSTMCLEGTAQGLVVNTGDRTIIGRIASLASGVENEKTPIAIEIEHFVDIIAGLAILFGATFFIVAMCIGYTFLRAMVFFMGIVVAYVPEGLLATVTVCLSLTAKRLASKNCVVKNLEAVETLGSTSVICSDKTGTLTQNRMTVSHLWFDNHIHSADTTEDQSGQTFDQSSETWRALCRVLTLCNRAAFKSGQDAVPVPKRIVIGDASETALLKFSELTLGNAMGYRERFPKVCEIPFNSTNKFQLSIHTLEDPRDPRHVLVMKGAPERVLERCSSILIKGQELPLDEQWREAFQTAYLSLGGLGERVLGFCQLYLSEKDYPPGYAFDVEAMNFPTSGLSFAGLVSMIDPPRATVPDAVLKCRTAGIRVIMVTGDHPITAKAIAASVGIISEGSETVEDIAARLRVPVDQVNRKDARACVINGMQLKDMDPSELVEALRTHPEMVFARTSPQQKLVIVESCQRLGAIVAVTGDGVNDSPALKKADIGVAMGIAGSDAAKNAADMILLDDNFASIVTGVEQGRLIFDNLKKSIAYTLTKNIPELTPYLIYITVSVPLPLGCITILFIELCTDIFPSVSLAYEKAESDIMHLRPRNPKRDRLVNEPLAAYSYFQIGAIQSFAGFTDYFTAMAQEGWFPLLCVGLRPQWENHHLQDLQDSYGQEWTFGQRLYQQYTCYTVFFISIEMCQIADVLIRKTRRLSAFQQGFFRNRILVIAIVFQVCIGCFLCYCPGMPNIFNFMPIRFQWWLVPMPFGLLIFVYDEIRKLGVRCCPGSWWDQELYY
Sequence of H^+,K^+-ATPase A335G (P18434 whole entry partner): as the sequence (P18434 whole entry partner) above
Sequence of H^+,K^+-ATPase L800F (P19156 whole entry L801F): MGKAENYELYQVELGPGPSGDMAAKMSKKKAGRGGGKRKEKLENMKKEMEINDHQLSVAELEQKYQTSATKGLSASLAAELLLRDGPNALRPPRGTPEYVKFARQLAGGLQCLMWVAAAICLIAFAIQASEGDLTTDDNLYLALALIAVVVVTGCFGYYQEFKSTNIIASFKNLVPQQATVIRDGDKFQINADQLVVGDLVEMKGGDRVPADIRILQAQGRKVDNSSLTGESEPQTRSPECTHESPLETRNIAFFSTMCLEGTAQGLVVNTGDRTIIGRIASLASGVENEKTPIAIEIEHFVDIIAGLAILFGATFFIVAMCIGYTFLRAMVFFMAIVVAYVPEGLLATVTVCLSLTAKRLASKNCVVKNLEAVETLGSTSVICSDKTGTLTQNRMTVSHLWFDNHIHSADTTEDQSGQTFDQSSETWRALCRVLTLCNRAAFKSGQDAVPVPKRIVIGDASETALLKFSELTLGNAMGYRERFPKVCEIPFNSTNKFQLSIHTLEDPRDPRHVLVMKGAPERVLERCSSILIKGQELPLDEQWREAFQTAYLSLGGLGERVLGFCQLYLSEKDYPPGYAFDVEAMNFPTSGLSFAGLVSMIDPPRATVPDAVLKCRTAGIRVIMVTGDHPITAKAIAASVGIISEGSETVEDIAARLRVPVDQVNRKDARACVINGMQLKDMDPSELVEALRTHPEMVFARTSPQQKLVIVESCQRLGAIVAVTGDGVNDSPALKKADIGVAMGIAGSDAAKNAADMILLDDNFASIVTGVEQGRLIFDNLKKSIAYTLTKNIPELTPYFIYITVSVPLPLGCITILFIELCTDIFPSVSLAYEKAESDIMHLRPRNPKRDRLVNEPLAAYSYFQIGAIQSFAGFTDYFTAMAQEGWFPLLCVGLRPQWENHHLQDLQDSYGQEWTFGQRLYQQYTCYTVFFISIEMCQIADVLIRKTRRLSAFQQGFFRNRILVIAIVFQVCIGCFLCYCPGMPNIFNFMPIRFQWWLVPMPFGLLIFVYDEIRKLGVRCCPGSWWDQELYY
Sequence of H^+,K^+-ATPase L800F (P18434 whole entry partner): as the sequence (P18434 whole entry partner) above
T2 sequence (P19156 whole entry D138E): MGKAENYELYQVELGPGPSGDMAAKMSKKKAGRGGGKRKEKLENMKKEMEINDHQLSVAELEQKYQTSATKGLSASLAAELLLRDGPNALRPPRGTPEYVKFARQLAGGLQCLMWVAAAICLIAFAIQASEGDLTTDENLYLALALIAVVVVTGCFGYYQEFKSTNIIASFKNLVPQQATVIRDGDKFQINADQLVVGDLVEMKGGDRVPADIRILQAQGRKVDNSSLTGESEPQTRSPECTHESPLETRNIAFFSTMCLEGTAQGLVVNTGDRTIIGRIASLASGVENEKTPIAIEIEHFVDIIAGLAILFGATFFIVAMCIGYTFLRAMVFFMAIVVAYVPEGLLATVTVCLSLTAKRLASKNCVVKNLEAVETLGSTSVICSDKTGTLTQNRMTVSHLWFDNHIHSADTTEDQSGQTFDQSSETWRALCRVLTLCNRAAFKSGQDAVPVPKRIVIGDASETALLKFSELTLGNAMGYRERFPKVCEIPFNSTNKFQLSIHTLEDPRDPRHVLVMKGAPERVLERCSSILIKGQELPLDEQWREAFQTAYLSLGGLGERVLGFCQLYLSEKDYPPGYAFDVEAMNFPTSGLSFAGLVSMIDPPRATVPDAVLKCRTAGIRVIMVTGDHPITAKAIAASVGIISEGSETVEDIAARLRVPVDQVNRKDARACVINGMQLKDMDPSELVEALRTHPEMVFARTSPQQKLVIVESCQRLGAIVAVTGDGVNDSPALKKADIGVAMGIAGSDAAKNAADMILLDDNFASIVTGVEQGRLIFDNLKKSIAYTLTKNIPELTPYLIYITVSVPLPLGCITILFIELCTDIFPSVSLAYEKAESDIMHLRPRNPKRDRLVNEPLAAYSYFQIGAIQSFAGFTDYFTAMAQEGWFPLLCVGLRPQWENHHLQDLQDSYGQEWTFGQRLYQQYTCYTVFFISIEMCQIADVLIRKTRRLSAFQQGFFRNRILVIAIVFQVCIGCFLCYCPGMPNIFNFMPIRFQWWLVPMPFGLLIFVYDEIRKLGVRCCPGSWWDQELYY
T2 sequence (P18434 whole entry partner): as the sequence (P18434 whole entry partner) above

Ki (H^+,K^+-ATPase D137L): 220 ± 40 nM
-fold increase in K i compared with wild-type (H^+,K^+-ATPase D137L; D137L): 38 fold
Ki (H^+,K^+-ATPase D136I): 15 ± 2 nM
-fold increase in K i compared with wild-type (H^+,K^+-ATPase D136I; D136I): 2.6 fold
Ki (H^+,K^+-ATPase N138D): 7.7 ± 0.7 nM
-fold increase in K i compared with wild-type (H^+,K^+-ATPase N138D; N138D): 1.3 fold
-fold increase in K i compared with wild-type (H^+,K^+-ATPase WT): 1.0 fold
Ki (H^+,K^+-ATPase WT; global fitting, mean ± SEM): 5.8 ± 0.6 nM
Ki (H^+,K^+-ATPase F332I): 8.9 ± 0.7 nM
-fold increase in K i compared with wild-type (H^+,K^+-ATPase F332I; F332I): 1.5 fold
Ki [1]: 110 ± 10 nM
-fold increase in K i compared with wild-type ([1]; D137N/N138D): 19 fold
Ki (H^+,K^+-ATPase Y140L): 5.3 ± 0.4 nM
-fold increase in K i compared with wild-type (H^+,K^+-ATPase Y140L; Y140L): 0.9 fold
Ki (H^+,K^+-ATPase L139F): 18 ± 3 nM
-fold increase in K i compared with wild-type (H^+,K^+-ATPase L139F; L139F): 3.1 fold
Ki (H^+,K^+-ATPase L796F): 106 ± 10 nM
-fold increase in K i compared with wild-type (H^+,K^+-ATPase L796F; L796F): 18 fold
Ki (H^+,K^+-ATPase A335G): 1.2 ± 0.1 nM
-fold increase in K i compared with wild-type (H^+,K^+-ATPase A335G; A335G): 0.2 fold
fold increased affinity (H^+,K^+-ATPase A335G; A335G vs WT): 5 fold
Ki (H^+,K^+-ATPase L800F): 59 ± 5 nM
-fold increase in K i compared with wild-type (H^+,K^+-ATPase L800F; L800F): 10 fold
-fold increase in K i compared with wild-type (H^+,K^+-ATPase D137E): 9.8 fold
Ki (H^+,K^+-ATPase D137E; high H^+-ATPase activity, K i' determined by K m/V max plot): 57 ± 16 nM
Ki (H^+,K^+-ATPase Y799F): 110 ± 10 nM
-fold increase in K i compared with wild-type (H^+,K^+-ATPase Y799F; Y799F): 19 fold
Ki (H^+,K^+-ATPase Y140F): 35 ± 6 nM
-fold increase in K i compared with wild-type (H^+,K^+-ATPase Y140F; Y140F): 6.0 fold
Ki (H^+,K^+-ATPase V331F): 15 ± 2 nM
-fold increase in K i compared with wild-type (H^+,K^+-ATPase V331F; V331F): 2.3 fold
Ki (H^+,K^+-ATPase D137F): 640 ± 110 nM
-fold increase in K i compared with wild-type (H^+,K^+-ATPase D137F; D137F): 110 fold
Ki (H^+,K^+-ATPase L139A): 14 ± 2 nM
-fold increase in K i compared with wild-type (H^+,K^+-ATPase L139A; L139A): 2.4 fold
Ki (H^+,K^+-ATPase L141I): 8.4 ± 1.5 nM
-fold increase in K i compared with wild-type (H^+,K^+-ATPase L141I; L141I): 1.4 fold
Ki (H^+,K^+-ATPase D137N): 450 ± 100 nM
-fold increase in K i compared with wild-type (H^+,K^+-ATPase D137N; D137N): 78 fold
fold lower affinity than WT (H^+,K^+-ATPase D137N; D137N vs WT): more than 60 fold
Ki [2]: > 1000 nM
-fold increase in K i compared with wild-type ([2]; A335C/C813A): > 170 fold
Ki (H^+,K^+-ATPase L139I): 2.6 ± 0.2 nM
-fold increase in K i compared with wild-type (H^+,K^+-ATPase L139I; L139I): 0.4 fold
Ki (H^+,K^+-ATPase V338A): 50 ± 7 nM
-fold increase in K i compared with wild-type (H^+,K^+-ATPase V338A; V338A): 8.6 fold
Ki (H^+,K^+-ATPase L809F): 850 ± 130 nM
-fold increase in K i compared with wild-type (H^+,K^+-ATPase L809F; L809F): 150 fold
Ki (H^+,K^+-ATPase A125F): 12 ± 1 nM
-fold increase in K i compared with wild-type (H^+,K^+-ATPase A125F; A125F): 2.1 fold
Ki (H^+,K^+-ATPase N138L): 1300 ± 500 nM
-fold increase in K i compared with wild-type (H^+,K^+-ATPase N138L; N138L): 220 fold
Compound: Cc1nc2c3c(ccn2c1C)[C@@H](O)[C@H](O)[C@@H](c1ccccc1)N3 [BYK99]
fold higher affinity than SCH28080 (H^+,K^+-ATPase): more than 20 fold
